Source: patent US10004732B2 (Novartis AG, priority 2014, dated 2018)
Counter-ions that a name gives are not always drawn. Like-named read-outs stand apart in the source and are kept apart here.

Legend:
[1] = biological target: Vps34 (Homo sapiens, UniProt Q8NEB9); experiment: Kinase Glo Luminescent Kinase Assay (Kglo), assay C; format: biochemical; conditions: read-out: Assay C VPS34 IC50
Protocol: Kinase Glo Luminescent Kinase Assay (Kglo) for Pb 3-Kinase Alpha (A), Pb 3-Kinase Beta (B), Vps34 (C), Pb 4-Kinase Beta (D)
The Kinase Glo Luminescent Kinase Assay (Promega, Madison/Wis., USA) is a homogeneous HTS method of measuring kinase activity by quantifying the amount of ATP remaining in solution following a kinase reaction.
L-α-phosphatidylinositol (PI), provided as 10 mg/ml solution in methanol, was transferred into a glass tube and dried under a nitrogen beam. It was then resuspended in 3% OctylGlucoside (1-0-n-octyl-beta-D-glucopyranoside) by vortexing and stored at 4° C. 5 μL of a mix of PI/OctylGlucoside with the PI 3-kinase alpha and PI 3-kinase beta subtypes, or Vps34 or PI 4-kinase beta were added. Kinase reactions were started by the addition of 5 μl of an ATP-mix containing in a final volume 10 μL 10 mM TRIS-HCl pH 7.5, 3 mM MgCl2, 50 mM NaCl, 0.05% CHAPS, 1 mM DTT and 1 μM ATP at room temperature.
All fits were performed with the program XLfit4 (ID Business Solutions, Guildford, UK).

[2] = biological target: T1, PI 3-kinase beta (Homo sapiens, UniProt P42338); experiment: Kinase Glo Luminescent Kinase Assay (Kglo), assay B; format: biochemical; conditions: read-out: Assay B PI3Kβ IC50
[3] = biological target: T2, PI 3-kinase gamma (Homo sapiens, UniProt P48736); experiment: TR-FRET Adapta assay, assay E; format: biochemical; conditions: read-out: Assay E PI3Kγ IC50
T2 sequence (P48736 whole entry): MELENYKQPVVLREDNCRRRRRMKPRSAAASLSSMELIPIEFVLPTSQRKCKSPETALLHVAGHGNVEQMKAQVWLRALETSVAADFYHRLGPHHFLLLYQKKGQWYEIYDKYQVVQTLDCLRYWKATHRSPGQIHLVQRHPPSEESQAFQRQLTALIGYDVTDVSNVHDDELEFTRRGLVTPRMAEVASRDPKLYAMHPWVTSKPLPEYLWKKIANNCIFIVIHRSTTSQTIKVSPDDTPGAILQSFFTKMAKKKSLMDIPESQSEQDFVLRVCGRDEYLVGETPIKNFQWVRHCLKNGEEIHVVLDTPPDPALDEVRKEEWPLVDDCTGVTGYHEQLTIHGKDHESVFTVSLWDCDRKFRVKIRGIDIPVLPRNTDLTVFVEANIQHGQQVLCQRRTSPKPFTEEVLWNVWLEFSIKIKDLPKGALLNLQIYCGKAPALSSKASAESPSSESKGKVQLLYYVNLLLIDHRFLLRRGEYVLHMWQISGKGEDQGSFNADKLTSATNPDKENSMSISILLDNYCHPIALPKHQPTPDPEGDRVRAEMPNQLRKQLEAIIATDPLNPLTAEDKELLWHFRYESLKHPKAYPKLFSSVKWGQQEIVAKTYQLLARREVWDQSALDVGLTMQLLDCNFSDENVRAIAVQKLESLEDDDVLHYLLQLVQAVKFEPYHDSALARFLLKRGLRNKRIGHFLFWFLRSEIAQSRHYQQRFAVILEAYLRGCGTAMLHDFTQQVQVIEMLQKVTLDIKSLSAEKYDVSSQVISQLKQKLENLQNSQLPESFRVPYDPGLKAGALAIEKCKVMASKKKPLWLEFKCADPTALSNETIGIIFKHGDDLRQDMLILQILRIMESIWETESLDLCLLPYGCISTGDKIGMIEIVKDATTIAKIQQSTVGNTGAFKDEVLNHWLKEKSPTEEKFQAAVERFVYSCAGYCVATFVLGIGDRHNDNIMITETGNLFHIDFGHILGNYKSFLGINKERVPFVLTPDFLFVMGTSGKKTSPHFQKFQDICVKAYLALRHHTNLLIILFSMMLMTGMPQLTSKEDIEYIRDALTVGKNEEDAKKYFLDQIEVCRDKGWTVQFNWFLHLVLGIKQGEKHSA
Protocol: TR-FRET Adapta Assay for PI 3-Kinase Gamma (E), PI 3-Kinase Delta (F)
The TR-FRET Adapta™ Universal Kinase Assay Kit was purchased from Invitrogen Corporation (Carlsbad/CA, USA) (Cat. No. PV5099).
PIK3CD substrate phosphatidylinositol (PI) was obtained from Invitrogen (vesicules consisting of 2 mM phosphatidylinositol (PI) in 50 mM HEPES pH7.5; Cat. No. PV5371). PIK3CG substrate phosphatidylinositol-4,5-bisphosphate (PIP(4,5)2 was obtained from Invitrogen (PIP2:PS large unilamellar vesicules consisting of 1 mM PIP2: 19 mM PS in 50 mM HEPES pH7.5, 3 mM MgCl2, 1 mM EGTA; Cat. No. PV5100).
Time-Resolved Fluorescence Resonance Energy Transfer (TR-FRET) is a technology based on energy transfer between two adjacent dyes, from an excited electron in one dye (the donor) to an electron of an adjacent dye (the acceptor) through resonance, then released as a photon. This energy transfer is detected by an increase in the fluorescence emission of the acceptor, and a decrease in the fluorescence emission of the donor. TR-FRET assays for protein kinases use a long-lifetime lanthanide Terbium or Europium chelates as the donor species which overcome interference from compound autofluorescence or light scatter from precipitated compounds, by introducing a delay after excitation by a flashlamp excitation source. Results are often expressed as a ratio of the intensities of the acceptor and donor fluorophores. The ratiometric nature of such a value corrects for differences in assay volumes between wells, as well as corrects for quenching effects due to colored compounds. The Adapta™ assay can be divided into two phases: a kinase reaction phase and an ADP detection phase. In the kinase reaction phase, all kinase reaction components are added to the well and the reaction is allowed to incubate for a set period of time specific for each kinase. […] In the presence of an inhibitor, the amount of ADP formed by the kinase reaction is reduced, and the resulting intact antibody-tracer interaction maintains a high TR-FRET signal.
50 nL of compound dilutions were dispensed onto white 384-well small volume polystyrene plate. Then 5 μL of either PI 3-kinase gamma or PI 3-kinase delta and lipid substrate (PI or PIP2:PS) followed by 5 μL of ATP (final assay volume 10 μL) are incubated at RT. The standard reaction buffer for the Adapta™ TR-FRET assay contained 10 mM Tris-HCl pH 7.5, 3 mM MgCl2, 50 mM NaCl, 1 mM DTT, 0.05% CHAPS 3-[(3-cholamidopropyl)dimethylammonio]-1-propanesulfonate).
Data are analyzed using Excel fit software or Graphpad Prism. IC50 values were derived by fitting a sigmoidal dose-response curve to a plot of assay readout over inhibitor concentration. All fits were performed with the program XLfit4 (ID Business Solutions, Guildford, UK). […] All fits were performed with the program XLfit4 (ID Business Solutions, Guildford, UK).

[4] = biological target: PI 4-kinase beta (Homo sapiens, UniProt Q9UBF8); experiment: Kinase Glo Luminescent Kinase Assay (Kglo), assay D; format: biochemical; conditions: read-out: Assay D PI4Kβ IC50
Sequence of PI 4-kinase beta (Q9UBF8 whole entry): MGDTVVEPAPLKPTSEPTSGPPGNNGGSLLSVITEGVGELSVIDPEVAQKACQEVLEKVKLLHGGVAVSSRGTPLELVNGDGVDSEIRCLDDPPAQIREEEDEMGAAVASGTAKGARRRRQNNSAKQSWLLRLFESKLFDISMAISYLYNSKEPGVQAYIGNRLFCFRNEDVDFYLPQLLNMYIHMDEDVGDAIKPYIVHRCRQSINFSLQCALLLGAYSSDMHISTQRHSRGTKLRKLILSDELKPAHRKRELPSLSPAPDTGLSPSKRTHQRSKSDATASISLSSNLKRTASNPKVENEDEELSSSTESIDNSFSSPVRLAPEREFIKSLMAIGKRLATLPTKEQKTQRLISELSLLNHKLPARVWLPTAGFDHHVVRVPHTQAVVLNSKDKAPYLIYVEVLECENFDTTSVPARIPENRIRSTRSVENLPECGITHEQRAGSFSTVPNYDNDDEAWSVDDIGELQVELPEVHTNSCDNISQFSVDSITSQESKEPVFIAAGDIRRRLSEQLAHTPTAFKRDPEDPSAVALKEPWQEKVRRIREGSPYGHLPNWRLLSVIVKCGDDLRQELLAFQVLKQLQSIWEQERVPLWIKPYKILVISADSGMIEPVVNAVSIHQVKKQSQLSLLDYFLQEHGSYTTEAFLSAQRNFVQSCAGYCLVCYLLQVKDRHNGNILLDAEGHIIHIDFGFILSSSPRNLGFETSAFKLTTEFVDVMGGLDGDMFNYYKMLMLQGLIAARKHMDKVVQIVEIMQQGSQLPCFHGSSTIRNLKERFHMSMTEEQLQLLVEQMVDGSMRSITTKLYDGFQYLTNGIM

[5] = biological target: T3, PI 3-kinase delta (Homo sapiens, UniProt O00329); experiment: TR-FRET Adapta assay, assay F; conditions: read-out: Assay F PI3Kδ IC50
Target sequence in this assay (O00329 whole entry): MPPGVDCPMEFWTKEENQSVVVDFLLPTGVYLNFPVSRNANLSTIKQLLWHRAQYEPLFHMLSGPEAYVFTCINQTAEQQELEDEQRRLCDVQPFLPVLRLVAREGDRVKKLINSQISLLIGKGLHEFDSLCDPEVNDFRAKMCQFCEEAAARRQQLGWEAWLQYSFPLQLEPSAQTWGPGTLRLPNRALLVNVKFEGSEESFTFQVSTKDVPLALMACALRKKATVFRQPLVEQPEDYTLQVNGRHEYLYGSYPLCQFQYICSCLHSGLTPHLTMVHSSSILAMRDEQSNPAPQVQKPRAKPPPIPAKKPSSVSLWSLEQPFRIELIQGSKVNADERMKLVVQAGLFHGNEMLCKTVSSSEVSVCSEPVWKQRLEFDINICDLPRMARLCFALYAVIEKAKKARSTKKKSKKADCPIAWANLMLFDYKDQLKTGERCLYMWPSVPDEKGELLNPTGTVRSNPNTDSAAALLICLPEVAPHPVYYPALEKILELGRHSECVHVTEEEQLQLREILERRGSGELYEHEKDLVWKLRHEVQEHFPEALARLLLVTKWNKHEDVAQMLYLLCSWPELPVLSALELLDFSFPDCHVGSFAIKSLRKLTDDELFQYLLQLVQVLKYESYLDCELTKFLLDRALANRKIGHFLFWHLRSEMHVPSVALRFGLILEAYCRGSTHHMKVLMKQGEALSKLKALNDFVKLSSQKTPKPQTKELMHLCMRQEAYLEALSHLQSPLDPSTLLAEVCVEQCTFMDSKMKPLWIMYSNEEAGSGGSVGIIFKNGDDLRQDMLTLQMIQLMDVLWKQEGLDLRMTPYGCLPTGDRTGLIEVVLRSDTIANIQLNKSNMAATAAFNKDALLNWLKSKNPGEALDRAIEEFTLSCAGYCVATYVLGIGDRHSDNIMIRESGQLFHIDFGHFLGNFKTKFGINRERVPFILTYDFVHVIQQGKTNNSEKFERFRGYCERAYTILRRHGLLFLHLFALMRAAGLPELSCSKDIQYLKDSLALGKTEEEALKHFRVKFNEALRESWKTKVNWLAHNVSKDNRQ
Target sequence in this assay (P27986 461-568 partner): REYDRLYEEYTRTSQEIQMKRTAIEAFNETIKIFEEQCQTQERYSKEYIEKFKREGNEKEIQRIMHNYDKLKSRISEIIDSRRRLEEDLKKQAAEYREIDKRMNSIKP

[6] = biological target: mTOR (Homo sapiens, UniProt P42345); experiment: Lanthascreen kinase binding assay, assay G; conditions: read-out: Assay G mTOR IC50
Protocol: Lanthascreen™ Kinase Binding Assay for mTOR (G)
Binding of an inhibitor to the kinase competes for binding with the tracer, resulting in a loss of FRET.
50 nL of compound dilutions were dispensed onto white 384-well small volume polystyrene plate.

[7] = system: IL-8-induced neutrophil shape change in human whole blood; experiment: Whole blood neutrophil shape change assay (L); format: cell-based; conditions: IL-8, human whole blood, read-out: Assay L WBSC IC50
Protocol: Whole Blood Neutrophil Shape Change Assay (L)
IL-8 was made up to 2 μM stocks in 0.1% bovine serum albumin/PBS and stored at −80° C. On the day IL-8 was diluted in PBS (phosphate buffered saline) 10 minutes before use. IL-8 was used at final concentration of 2 nM and a concentration range from 0.003 to 200 nM for the donor dose response curve.
Assay fixative solution was prepared fresh each day from 10× concentrated CellFIX™ solution diluted 1:10 in sterile distilled water and then 1:4 with PBS. Assay fixative solution was kept on ice prior to use.
A 10× lysis buffer was prepared in advance by dissolving 20.75 g NH4Cl and 2.5 g KHCO3 in 250 ml sterile H2O. This 10× lysis buffer was filtered under sterile conditions and stored for up to two weeks at 4° C. On the day a 1× lysis solution was prepared with sterile distilled H2O and kept on ice prior to use.
The test compounds were prepared as 10 mM stock solutions in 100% DMSO and were stored at 4° C. Once in use for an assay 10 mM stock compounds were thawed and stored at RT protected from light. Compound dilutions were prepared fresh on the day. The first series of dilutions in 100% DMSO were done first thing in the morning. Only once blood had been collected and arrived in laboratory was the next set of dilutions into PBS carried out (1:10 PBS, 10% DMSO). This limited the exposure of diluted compound to plastic and made sure the exposure timing was consistent between assays.
Compound dilutions in 100% DMSO were prepared as described previously. Human whole blood was collected in K2 EDTA Vacutainers. Once blood was in the laboratory, compound dilutions into PBS were carried out as described previously and depicted in Table 1.
The outer wells of the deep well assay plate were filled with 1200 μl of sterile distilled H2O in an effort to limit edge effects (rows A1-H1, A1-A12, A12-H12).
An IL-8 dose response was determined for each blood donor examined, to monitor the donor response to IL-8. At this step in assay preparation for the IL-8 dose response samples 10 μl of PBS was added to designated wells. In addition the assay window without DMSO was also assessed each day. For such samples at this step in assay preparation 10 μl of PBS was added in the place of 10% DMSO.
Lids were placed on the 96 well plates and samples were incubated for 15 minutes at 37° C. in a water-bath.
Following the compound pre-incubation 10× final IL-8 was added to appropriate wells (10 μl of 20 nM working stock IL-8, final IL-8 concentration in blood=2 nM) and 10 μl of PBS was added to the un-stimulated controls. 10× final dose response range IL-8 was also added to designated wells (final concentration range on assay plate was 200 nM to 0.0005 nM, 1:5 serial dilution in PBS). The IL-8 and PBS were added to appropriate wells across all assay plates in the same sequence as the blood to compound addition. […] Samples were incubated for 5 minutes at 37° C. in a water-bath. Following the incubation sample plates were transferred to ice where 250 μl of chilled Assay Fixative Buffer was added promptly to all wells.
Samples were incubated on ice for 7 minutes (no mixing). […] Once added samples were mixed once and incubated on ice for 30 minutes to achieve uniform red blood cells lysis. After lysis, 200 μl of sample was transferred to a 96 well microplate on ice. […] Granulocytes were identified based on differential side scatter (SSC) and forward scatter (FSC) characteristics.

[8] = biological target: T4, PI 3-kinase alpha (Homo sapiens, UniProt P42336); experiment: Kinase Glo Luminescent Kinase Assay (Kglo), assay A; format: biochemical; conditions: read-out: Assay A PI3Kα IC50
Target sequence in this assay (P42336 whole entry): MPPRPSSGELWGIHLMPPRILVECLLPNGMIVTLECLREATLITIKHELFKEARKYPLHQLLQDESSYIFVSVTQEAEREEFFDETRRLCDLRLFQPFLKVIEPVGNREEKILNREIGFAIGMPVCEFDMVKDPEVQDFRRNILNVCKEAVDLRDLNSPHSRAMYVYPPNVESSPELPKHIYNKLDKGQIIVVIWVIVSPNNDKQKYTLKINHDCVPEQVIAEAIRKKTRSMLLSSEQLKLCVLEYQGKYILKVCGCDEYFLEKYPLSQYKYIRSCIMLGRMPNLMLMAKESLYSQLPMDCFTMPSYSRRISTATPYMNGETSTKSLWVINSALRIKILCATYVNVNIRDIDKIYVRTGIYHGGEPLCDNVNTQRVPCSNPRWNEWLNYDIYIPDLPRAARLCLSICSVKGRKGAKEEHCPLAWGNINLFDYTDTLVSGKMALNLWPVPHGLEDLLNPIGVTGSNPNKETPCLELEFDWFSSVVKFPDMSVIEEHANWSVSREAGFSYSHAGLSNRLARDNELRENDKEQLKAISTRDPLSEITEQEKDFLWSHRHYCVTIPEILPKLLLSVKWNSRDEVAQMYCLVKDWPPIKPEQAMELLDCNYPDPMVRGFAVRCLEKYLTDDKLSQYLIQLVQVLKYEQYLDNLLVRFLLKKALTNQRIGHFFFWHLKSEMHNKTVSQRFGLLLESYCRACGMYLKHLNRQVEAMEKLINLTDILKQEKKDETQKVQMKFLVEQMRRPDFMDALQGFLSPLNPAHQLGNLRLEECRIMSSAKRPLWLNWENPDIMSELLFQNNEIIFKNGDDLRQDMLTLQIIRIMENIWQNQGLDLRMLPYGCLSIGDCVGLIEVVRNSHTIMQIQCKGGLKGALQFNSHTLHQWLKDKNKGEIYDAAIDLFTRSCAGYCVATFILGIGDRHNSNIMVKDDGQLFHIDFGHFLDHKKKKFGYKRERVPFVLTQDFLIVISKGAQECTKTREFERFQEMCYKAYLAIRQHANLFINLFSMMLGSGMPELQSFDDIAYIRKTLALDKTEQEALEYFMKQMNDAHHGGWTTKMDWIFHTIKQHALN

[9] = Microsomal clearance assay (M); conditions: intrinsic clearance in rat liver microsomes
Protocol: The experiments were performed in 96-well glass plates at 37° C. on an automated Tecan EVO platform. Test compounds at a concentration of 10 mM in pure DMSO were diluted 1:1000 in water to 10 μM. […] Reactions were initiated by the addition of 150 μL of a cofactor solution containing 2 mM NADPH.

[10] = biological target: T4, PI 3-kinase alpha; experiment: Cellular assay H1, p-Akt (S473) in Rat-1 cells, Surefire format; format: cell-based; conditions: non-asterisked data: version H1 (Surefire format), Rat-1 cells; read-out: Assay H PI3Kα IC50
[11] = biological target: T1, PI 3-kinase beta; experiment: Cellular assay I1, p-Akt (S473) in Rat-1 cells, Surefire format; format: cell-based; conditions: non-asterisked data: version I1 (Surefire format), Rat-1 cells; read-out: Assay I PI3Kβ IC50
Description: Cellular Assays for PI 3-Kinase Alpha (H1), Beta (I1) and Delta (J1): Surefire Format
AlphaScreen (Amplified Luminescent Proximity Homogeneous Assay, ALPHA, Perkin Elmer) is a non-radioactive bead-based proximity assay technology to study biomolecular interactions in a homogenous microtiter plate format. The brand name SureFire denotes AlphaScreen assays that are adapted to quantify the phosphorylation of endogenous cellular proteins in cell lysates, by using matched antibody pairs, which consist of an anti-phospho-kinase and an anti-kinase antibody. The assay allows characterization of kinase signaling in cells as well as measurement of kinase inhibitor effects.
Using Rat-1 cells stably expressing myr-HA-tagged versions of the human PI3Kdelta, PI3Kalpha, or PI3Kbeta p110 catalytic subunit isoforms, the assay was developed as a two-plate protocol in a 384-well format.
For compound testing, the cells were seeded at a density of 4000 (Rat-1_PI3Kdelta), 7500 (Rat-1_PI3Kalpha), or 6200 (Rat-1_PI3Kbeta) cells in 20 μl complete growth medium into cell culture treated 384-well plates and were grown at 37° C./5% CO2/90% humidity for 24 h. Shortly before compound transfer, the complete medium was removed, 30 μl assay buffer (DMEM high glucose, 1×MEM NEAA, 10 mM HEPES, 2 mM L-glutamine, 0.1% (w/v) BSA) was added and 10 μl of the compound predilutions were transferred to the cells.

[12] = biological target: T3, PI 3-kinase delta; experiment: Cellular assay J1, p-Akt (S473) in Rat-1 cells, Surefire format; format: cell-based; conditions: non-asterisked data: version J1 (Surefire format), Rat-1 cells; read-out: Assay J PI3Kδ IC50
[13] = biological target: T2, PI 3-kinase gamma; experiment: Cellular U937 AKT assay K1 (MSD); format: cell-based; conditions: U937 cells, K1 format; read-out: Assay K1 PI3Kγ IC50

Sequence of Vps34 (Q8NEB9 whole entry, species assumed): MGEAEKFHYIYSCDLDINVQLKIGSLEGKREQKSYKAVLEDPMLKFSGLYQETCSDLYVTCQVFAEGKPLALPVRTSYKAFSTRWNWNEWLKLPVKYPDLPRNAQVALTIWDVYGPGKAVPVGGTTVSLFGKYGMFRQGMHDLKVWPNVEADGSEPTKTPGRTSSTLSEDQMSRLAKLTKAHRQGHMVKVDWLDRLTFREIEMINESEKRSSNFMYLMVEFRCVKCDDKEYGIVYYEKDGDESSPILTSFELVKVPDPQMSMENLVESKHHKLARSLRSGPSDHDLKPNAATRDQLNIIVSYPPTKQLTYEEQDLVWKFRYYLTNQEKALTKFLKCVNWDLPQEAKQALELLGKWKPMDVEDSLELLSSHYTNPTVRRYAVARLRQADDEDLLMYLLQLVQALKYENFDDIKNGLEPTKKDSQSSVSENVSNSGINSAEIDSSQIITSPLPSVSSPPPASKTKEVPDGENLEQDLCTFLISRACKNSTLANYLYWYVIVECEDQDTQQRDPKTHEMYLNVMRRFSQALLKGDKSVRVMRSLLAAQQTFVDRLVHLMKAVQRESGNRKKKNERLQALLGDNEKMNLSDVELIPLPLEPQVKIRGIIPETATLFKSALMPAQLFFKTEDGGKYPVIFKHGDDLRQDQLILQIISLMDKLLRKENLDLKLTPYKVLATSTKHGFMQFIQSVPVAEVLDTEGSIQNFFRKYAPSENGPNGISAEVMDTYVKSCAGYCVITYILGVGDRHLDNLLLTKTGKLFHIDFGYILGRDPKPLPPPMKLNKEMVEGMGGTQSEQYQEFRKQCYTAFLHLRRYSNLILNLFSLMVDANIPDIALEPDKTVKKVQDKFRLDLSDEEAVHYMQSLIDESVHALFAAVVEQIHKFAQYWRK

SMILES	IC50 [1]	IC50 [2]	IC50 [3]	IC50 [4]	IC50 [5]	IC50 [6]	IC50 ([7]; Homo sapiens, Neutrophil)	IC50 [8]	Assay M RLM CI(int) [9]	IC50 [10]	IC50 [11]	IC50 [12]	IC50 [13]	IC50 [7]
Cc1cc(-c2nc(-c3cc(S(=O)(=O)NC4CC(F)(F)C4)ccc3C)cnc2N)ccn1 [Example 129.2, 3-(5-amino-6-(2-methylpyridin-4-yl)pyrazin-2-yl)-N-(3,3-difluorocyclobutyl)-4-methylbenzenesulfonamide]	> 9.1 µM	4.3 µM	0.022 µM	7 µM	1.2 µM	6.1 µM	2.42 µM	0.28 µM	130 µL/min/mg	–	–	–	–	–
Cc1ccc(S(=O)(=O)NCC[C@@H](O)C(F)(F)F)cc1-c1cnc(N)c(-c2cn(C)nc2C)n1 (single isomer, unassigned) [Example 52a, (R)-3-(5-Amino-6-(1,3-dimethyl-1H-pyrazol-4-yl)pyrazin-2-yl)-4-methyl-N-(4,4,4-trifluoro-3-hydroxybutyl)benzenesulfonamide or (S)-3-(5-Amino-6-(1,3-dimethyl-1H-pyrazol-4-yl)pyrazin-2-yl)-4-methyl-N-(4,4,4-trifluoro-3-hydroxybutyl)benzenesulfonamide]	> 10 µM	–	0.016 µM	5.5 µM	–	–	–	0.17 µM	60 µL/min/mg	–	–	–	–	0.806 µM
Cc1cc(-c2nc(-c3cc(S(=O)(=O)NC4CCC(CO)CC4)ccc3C)cnc2N)ccn1 (centres unmarked) [Example 129.1, 3-(5-amino-6-(2-methylpyridin-4-yl)pyrazin-2-yl)-N-(4-(hydroxymethyl)cyclohexyl)-4-methylbenzenesulfonamide]	> 9.1 µM	6.3 µM	0.023 µM	6.5 µM	0.25 µM	6.3 µM	0.721 µM	0.19 µM	–	–	–	–	–	–
Cc1ccc(S(=O)(=O)NC[C@@H]2CCC(C)(C)O2)cc1-c1cnc(N)c(-n2cncn2)n1 [Example 127.39]	> 10 µM	2.3 µM	0.1 µM	> 10 µM	2.1 µM	9.3 µM	6.29 µM	1.4 µM	–	–	–	–	–	–
Cc1ccc(S(=O)(=O)NC2CC(F)(F)C2)cc1-c1cnc(N)c(-n2cncn2)n1 [Example 127.7]	> 10 µM	1.3 µM	0.04 µM	6.3 µM	1.1 µM	1.5 µM	3.99 µM	0.26 µM	–	–	–	–	–	–
Cc1ccc(S(=O)(=O)NCC(C)(C)O)cc1-c1cnc(N)c(-c2nc(C(C)C)no2)n1 [Example 97, 3-(5-Amino-6-(3-isopropyl-1,2,4-oxadiazol-5-yl)pyrazin-2-yl)-N-(2-hydroxy-2-methylpropyl)-4-methylbenzenesulfonamide]	> 10 µM	–	–	> 10 µM	–	> 10 µM	2.15 µM	–	60 µL/min/mg	–	–	–	–	–
Cc1ncc(-c2nc(-c3cc(S(=O)(=O)NCC4COC4)ccc3C)cnc2N)s1 [Example 45.1, 3-(5-Amino-6-(2-methylthiazol-5-yl)pyrazin-2-yl)-4-methyl-N-(oxetan-3-ylmethyl)benzenesulfonamide]	1.9 µM	0.2 µM	0.011 µM	3 µM	0.08 µM	–	0.306 µM	0.05 µM	70 µL/min/mg	–	–	–	–	–
Cc1cc(-c2nc(-c3cc(S(=O)(=O)NC4CCN(C(C)C)CC4)ccc3C)cnc2N)ccn1 [Example 129.21, 3-(5-amino-6-(2-methylpyridin-4-yl)pyrazin-2-yl)-N-(1-isopropylpiperidin-4-yl)-4-methylbenzenesulfonamide]	> 9.1 µM	> 9.1 µM	0.053 µM	> 9.1 µM	1 µM	> 9.1 µM	8.95 µM	2.9 µM	–	–	–	–	–	–
Cc1ccc(S(=O)(=O)NCC2(O)CCOCC2)cc1-c1cnc(N)c(-n2cncn2)n1 [Example 32, 3-(5-Amino-6-[1,2,4]triazol-1-yl-pyrazin-2-yl)-N-(4-hydroxy-tetrahydropyran-4-ylmethyl)-4-methylbenzenesulfonamide]	> 10 µM	–	–	4.05 µM	–	> 10 µM	0.668 µM	–	28 µL/min/mg	–	–	–	–	–

More lines, main results first:

IC50 [1]	IC50 [2]	IC50 [3]	IC50 [4]	IC50 [5]	IC50 [6]	IC50 ([7]; Homo sapiens, Neutrophil)	IC50 [8]	Assay M RLM CI(int) [9]	IC50 [10]	IC50 [11]	IC50 [12]	IC50 [13]	SMILES	IC50 [7]
> 9.1 µM	2.3 µM	0.042 µM	> 9.1 µM	0.38 µM	> 9.1 µM	2.95 µM	0.54 µM	–	–	–	–	–	CCN1CCC[C@@H]1CNS(=O)(=O)c1ccc(C)c(-c2cnc(N)c(-c3ccnc(C)c3)n2)c1 [Example 129.25, (R)-3-(5-amino-6-(2-methylpyridin-4-yl)pyrazin-2-yl)-N-((1-ethylpyrrolidin-2-yl)methyl)-4-methylbenzenesulfonamide]	–
> 10 µM	0.81 µM	0.045 µM	5 µM	1.1 µM	8.7 µM	1.73 µM	0.33 µM	–	–	–	–	–	Cc1ccc(S(=O)(=O)NCC2(O)CCC2)cc1-c1cnc(N)c(-n2cncn2)n1 [Example 127.16]	–
> 10 µM	6.2 µM	0.06 µM	5.9 µM	3.2 µM	–	2.49 µM	1.2 µM	–	–	–	–	–	Cc1ccc(S(=O)(=O)N[C@H](C#N)CO)cc1-c1cnc(N)c(-n2cncn2)n1 [Example 127.48]	–
> 9.1 µM	> 9.1 µM	0.038 µM	5 µM	0.57 µM	6.5 µM	1.17 µM	0.27 µM	79 µL/min/mg	–	–	–	–	Cc1cc(-c2nc(-c3cc(S(=O)(=O)NCC4(O)CCC4)ccc3C)cnc2N)ccn1 [Example 129.5, 3-(5-amino-6-(2-methylpyridin-4-yl)pyrazin-2-yl)-N-((1-hydroxycyclobutyl)methyl)-4-methylbenzenesulfonamide]	–
> 10 µM	1.1 µM	0.024 µM	4.4 µM	0.88 µM	2.6 µM	1.5 µM	0.3 µM	–	–	–	–	–	Cc1ccc(S(=O)(=O)NCC(F)(F)F)cc1-c1cnc(N)c(-n2cncn2)n1 [Example 127, 3-(5-Amino-6-(1H-1,2,4-triazol-1-yl)pyrazin-2-yl)-4-methyl-N-(2,2,2-trifluoroethyl)benzenesulfonamide]	–
> 10 µM	1.3 µM	0.042 µM	> 10 µM	0.46 µM	1.2 µM	23.6 µM	1.3 µM	–	–	–	–	–	Cc1ccc(S(=O)(=O)NC[C@H]2CCNC2)cc1-c1cnc(N)c(-n2cncn2)n1 [Example 127.58, (S)-3-(5-amino-6-(1H-1,2,4-triazol-1-yl)pyrazin-2-yl)-4-methyl-N-(pyrrolidin-3-ylmethyl)benzenesulfonamide trifluoroacetic acid salt]	–
> 10 µM	2 µM	0.15 µM	5.2 µM	0.23 µM	5.9 µM	1.79 µM	0.57 µM	–	–	–	–	–	Cc1ccc(S(=O)(=O)NC[C@@H]2CCOC2)cc1-c1cnc(N)c(-n2cncn2)n1 [Example 127.26]	–
3.4 µM	1.3 µM	–	7 µM	0.84 µM	> 10 µM	3.7 µM	0.42 µM	46 µL/min/mg	–	–	–	–	Cc1cc(-c2nc(-c3cc(S(=O)(=O)NCCC(C)(C)O)ccc3C)cnc2N)on1 [Example 89, 3-(5-Amino-6-(3-methylisoxazol-5-yl)pyrazin-2-yl)-N-(3-hydroxy-3-methylbutyl)-4-methylbenzenesulfonamide]	–
> 10 µM	1.1 µM	0.032 µM	2.6 µM	1.1 µM	1.8 µM	> 100 µM	0.18 µM	–	–	–	–	–	Cc1ccc(S(=O)(=O)NC2CCC2)cc1-c1cnc(N)c(-n2cncn2)n1 [Example 127.54]	–
> 9.1 µM	5.5 µM	0.056 µM	> 9.1 µM	0.42 µM	> 9.1 µM	–	0.35 µM	104 µL/min/mg	2.5 µM	3.72 µM	1.94 µM	0.354 µM	Cc1cc(-c2nc(-c3cc(S(=O)(=O)NCC4CCCO4)ccc3C)cnc2N)ccn1 (centres unmarked) [Example 129.17, 3-(5-amino-6-(2-methylpyridin-4-yl)pyrazin-2-yl)-4-methyl-N-((tetrahydrofuran-2-yl)methyl)benzenesulfonamide]	–
